What all share (test): growth of human tumour cells (NCI), 48 h
The subject of assay [1] is A498 renal.
In assay [2] the test system is ACHN renal.
For assay [3], the system named is HL-60(TB) leukemia.
Assay [4] has as its system K-562 leukemia.
Assay [5] relates to NCI/ADR-RES ovarian.
Assay [6] deals with RXF 393 renal.
Assay [7] deals with SK-OV-3 ovarian.
Assay [8] relates to SNB-75 CNS.

Structures are written as SMILES.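 96-well plates; 48 h exposure; 5 concentrations. Endpoints by linear interpolation between flanking doses. Not reached: highest tested concentration assigned. GI50 marks 50% less growth. The concentration for full growth arrest is given as TGI.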

As for `NC(N)=Nc1ccc(Oc2cccc(Nc3ccc(Cl)c(C(F)(F)F)c3)c2)cn1`, the GI50 is 1230 nM in assay [1]; 1740 nM in assay [2]; 1890 nM in assay [3]; 1910 nM in assay [4]; 3740 nM in assay [5]; 1780 nM in assay [6]. The results for the GI50 in assay [7] and in assay [8] were 1890 nM and 1420 nM, respectively. Besides, the TGI was 2670 nM in assay [1]; 3210 nM in assay [2]; 4520 nM in assay [3]; above 100000 nM in assay [4]; 30500 nM in assay [5]; 3580 nM in assay [6]. Besides, the TGI in assay [7] turned out to be 3430 nM; in assay [8], 2770 nM.

Values taken from PubChem BioAssay (NCI).
